Earlier results on 2 compounds are cited in US11992479B2, “R-fadrozole for use in the treatment of aldostonerism” (priority 2018, dated 2024).

Counter-ions that a name gives are not always drawn.

Series [1] concerns basal plasma aldosterone. The conditions noted are these: twice daily, healthy male subjects; cited from earlier work.
Series [2] has as its system plasma aldosterone. Conditions: 0.5 and 1.0 mg twice a day, PA patients; cited from earlier work.
The conditions of series [3]: phase I study; cited from earlier work.
In series [4] the test system is DOC. The conditions noted are these: PA patients, cited from earlier work.

As for `N#Cc1ccc(C2CCCc3cncn32)cc1` (racemic) [Fadrozole hydrochloride], in series [1], the “effect on basal plasma aldosterone levels” value is listed as “only modestly affect basal plasma aldosterone levels” and the “effect on serum potassium” value was “without significantly elevating serum potassium”.
`N#Cc1ccc([C@H]2CCc3cncn32)c(F)c1` [LCI699]: in series [2], the “decrease of plasma aldosterone” value is given as 70-80%. In series [3], the elimination half-life result was “approximately 4 hours” and the “time to peak concentration” value was 1 h. The DOC mean level in series [4] (1.0 mg twice-daily dose) is 9.8 ng/mL. Moreover, the “increase of DOC” value in series [4] (twice-daily dosing) is “over 700%”.
